Data reported in patent US10959984B2, “Methods for treating cancer with RORγ inhibitors” (THE REGENTS OF THE UNIVERSITY OF CALIFORNIA, priority 2015, dated 2021).
pIC50: −log10 of the molar value.

Assays:
C4-2B and 22Rv1 cells = experiment: Colony formation, 14 d; assay type: cell-based, human
Experimental: For apoptosis, Terminal deoxynucleotidyl transferase-mediated dUTP nick end labeling (TUNEL) was performed by using in situ cell death detection kit (Roche) as previously described^56. The results are expressed as a percentage of apoptotic cell number/total cell number. Caspase-3/7 activity was measured using a luminescent caspase-Glo 3/7 assay kit (Promega Corporation, Madison, USA) following the manufacturer's instructions. For cell growth, cells were seeded in 6-well plates at 2×10^5 per well and treated as indicated. Total viable cell numbers were counted using a Coulter cell counter. For colony formation, 800 cells were seeded in a well of 6-well plates and cultured for 14 days with the medium changed every 3 days. When the cell clone grew visible, the medium was removed and the cells were fixed with […] formalin for 10 minutes. Then the plates were washed with PBS for two times and the cell colonies were stained with 0.2% crystal violet (in 10% formalin) for 15 minutes. The numbers of cell colonies were counted after washed 5 times by PBS. The above assays were performed in triplicates and the entire experiments were repeated three times.

AR = experiment: Anti-AR ChIP-seq; assay type: cell-based, human; details: C4-2B cells, 5 μM, 24 hours
Experimental: C4-2B cells were treated with vehicle or SR2211 (5 μM) for 24 hours before harvested for ChIP-seq. ChIP-seq experiments were performed as described^65. Anti-AR ChIP-seq was repeated in two independent experiments. Antibodies used were against AR (Santa Cruz; sc-815); RNA Pol II (Santa cruz; sc-899); H3K4me2 (Abcam ab32356); H3K4me3 (Abcam; ab8580); H3 (acetyl K27) (Abcam; ab4729). Libraries were quantified with the Bioanalyzer 2100 (Agilent) and sequenced on the Illumina HiSeq 2000 Sequencer (BGI, Hong Kong). Sequencing tags were mapped against the Homo sapiens (Human) reference genome (hg19) using Bowtie 2^66. Uniquely mapped tags were used for peak calling by MACS(2.1.0)^67 to identify regions of ChIP-Seq enrichment over background. A q value threshold of enrichment of 5×10^−2 was used for all data sets. Normalized genome-wide signal coverage tracks from raw read alignment files were built by MACS2, UCSC tools (http://hgdownload.cse.ucsc.edu/admin/exe/linux.x86_64/bedGraphToBigWig/bedClip) and bedTools (http://code.google.com/p/bedtools/). Visualization of ChIP-seq signal at enriched genomic regions (avgprof and heatmap) was achieved by using ngs.plot (https://github.com/shenlab-sinai/ngsplot). ChIP-seq data have been deposited to NCBI-GEO with accession code GSE72714.

[1] = tested on: TNBC cells including MDA-MB468, MDA-MB231, BT20, SUM149, and HCC1937; experiment: CellTiter-GLO viability, triple-negative breast cancer cells; assay type: cell-based; details: Homo sapiens, 96 h, treated for 4 days
Experimental: (§1) For cell viability, cells were seeded in 96-well plates at 1500-2500 cells per well (optimum density for growth) in a total volume of 100 μl media. Serially diluted compounds in […] of media were added to the cells 12 hours later. After 4 days of incubation, Cell-Titer GLO reagents (Promega) were added and luminescence was measured on GLOMAX microplate luminometer (Promega), according to the manufacturer's instructions. All experimental points were set up as sextuplicate as biological replication and the entire experiments were repeated three times. The data are presented as percentage of viable cells with vehicle treated cells set as 100. The estimated in vitro IC50 values were calculated using GraphPad Prism 6 software.
(§2) Using a CellTiter-GLO assay, the viability of cells of different cancer types was measured after treatment with different concentrations of RORγ small molecule inhibitors for 4 days.

[2] = tested on: ER-positive cells, such as MCF-7 and T47D; experiment: CellTiter-GLO viability, ER-positive breast cancer cells; assay type: cell-based; details: Homo sapiens, 96 h; ER-positive cells MCF-7 and T47D, treated for 4 days
Experimental: as §1, §2

breast cancer cells = experiment: CellTiter-GLO viability, breast cancer cells; assay type: cell-based, human; details: cells having different major molecular features, 4 days
Experimental: as §1, §2

lung cancer cells = experiment: CellTiter-GLO viability, lung cancer cells; assay type: cell-based, human; details: NSCLC cells: KRAS mutant (A427, Calu1, A549, H23, H358), BRAF mutant (H1666), EGFR mutant (HCC827, PC-9), Erlotinib-resistant (A427, H1975); 4 days
Experimental: as §1, §2

[3] = tested on: A549 human lung cancer cells xenograft tumors; experiment: A549 lung cancer xenograft tumor growth; assay type: in vivo, mice; details: A549 xenografts, 5 mg/kg/day i.p., six weeks
Experimental: FIG. 32A: Cell viability, as measured by Cell-Titer GLO, of different lung cancer cells treated with the indicated concentrations of SR2211 for 4 days. FIG. 32B: Cell viability, as measured by Cell-Titer GLO, of different lung cancer cells treated with the indicated concentrations of GSK805 for 4 days. FIG. 32C: Half-maximal inhibitory concentration (IC50) for SR2211 and GSK805 in indicated lung cancer cell lines treated for 4 days. FIG. 32D: Effects of the indicated treatments (SR2211, 5 mg/kg i.p. five times per week; or vehicle) on the growth of lung cancer A549 xenografts (n=6 mice per group). Treatment started when A549 tumors reached approximately 100 mm^3. Mean tumor volume±s.e.m., Mean tumor weight±s.e.m. and representative tumor images are shown. P<0.01.

pIC50 [1]: 5.00 to 6.00
pIC50 [2]: < 5.00
SMILES: OC(c1ccc(-c2ccc(CN3CCN(Cc4ccncc4)CC3)cc2)c(F)c1)(C(F)(F)F)C(F)(F)F [SR2211, 2-Fluoro-4′-[[4-(4-pyridinylmethyl)-1-piperazinyl]methyl]-a,a-bis (trifluoromethyl)-[1,1′-biphenyl]-4-methanol]
colony formation (C4-2B and 22Rv1 cells): poor colony formation
genome-wide AR binding to its target loci (AR): dramatic inhibition of genome-wide AR binding
growth and survival of breast cancer cells (breast cancer cells): strongly inhibited the growth and survival of breast cancer cells
growth and survival of lung cancer cells (lung cancer cells): strongly inhibited the growth and survival of lung cancer cells
tumor growth of xenograft lung tumor model [3]: strongly inhibited tumor growth
